Measured values: patent publication US12466829B2, “Spirocyclic piperidine melanocortin subtype-2 receptor (MC2R) antagonists and uses thereof” (Crinetics Pharmaceuticals, Inc., priority 2019, dated 2025)

Target: T1, hMC2 receptor (Homo sapiens, UniProt Q01718)
T1 construct: host or cells: CRE-bla-CHO-K1 cells
Assay: hMC2 membrane binding assay ([125I]ACTH (1-39) Tyr23, SPA)
Settings: crude membranes of CRE-bla-CHO-K1 cells expressing hMC2 receptor and hMRAP; 0.2 nM [125I]ACTH (1-39) Tyr23; 1.5 hours at room temperature; read-out: MC2R binding potency
Method: Crude membrane fractions are prepared from CRE-bla-CHO-K1 cells stably expressing hMC2 receptor and hMRAP accessory protein (Thermo Fisher). The cells are grown to 85-100% confluence on standard tissue culture dishes in GlutaMax DMEM growth media (Gibco) with following additives: 10% dialyzed FBS (Gemini), 0.1 mM NEAA (Gibco), 25 mM HEPES (Gibco), 5 μg/mL blasticidin (Goldbio), 100 μg/mL zeocin (Invitrogen), 600 μg/mL hygromycin (Goldbio). To prepare membranes, cells are scraped and collected in 1× Dulbecco's phosphate buffered saline (Corning) and then pelleted at 1000 RPM's. The cell pellet is reconstituted in membrane preparation buffer (20 mM HEPES, 6 mM MgCl2 and 1 mM EGTA, protease inhibitor tablets (Pierce) adjusted to pH 7.4), homogenized using a dounce homogenizer, and the resulting membrane fraction is pelleted by centrifugation at 12,000 RPM's. The membrane pellet is resuspended in membrane preparation buffer, snap freezed and stored at −80° C. for later use.
The hMC2 membrane binding assay utilizes the following components: radiolabel [^125I]ACTH (1-39) Tyr23 (PerkinElmer), wheatgerm agglutinin coated PVT SPA beads (PerkinElmer), crude hMC2R membranes, and compounds. Briefly hMC2R membranes are incubated with SPA beads in binding assay buffer (50 mM HEPES, 5 mM MgCl2, 1 mM CaCl2), 0.2% BSA, protease inhibitor tablets (Pierce) adjusted to pH7.4) prior to assay initiation. […] Assay plates are read using a Top Count NXT and Ki values for compounds are determined using a GraphPad Prism 6 non-linear regression analysis.

T1 sequence (Q01718 whole entry): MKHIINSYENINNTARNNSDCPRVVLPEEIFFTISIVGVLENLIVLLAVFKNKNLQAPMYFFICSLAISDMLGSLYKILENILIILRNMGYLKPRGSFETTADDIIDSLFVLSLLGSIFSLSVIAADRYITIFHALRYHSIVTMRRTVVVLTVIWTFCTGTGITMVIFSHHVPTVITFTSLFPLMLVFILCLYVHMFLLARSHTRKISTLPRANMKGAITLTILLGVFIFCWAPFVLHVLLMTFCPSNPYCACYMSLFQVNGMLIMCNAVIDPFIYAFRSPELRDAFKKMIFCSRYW
T1 sequence (Q8TCY5 whole entry partner): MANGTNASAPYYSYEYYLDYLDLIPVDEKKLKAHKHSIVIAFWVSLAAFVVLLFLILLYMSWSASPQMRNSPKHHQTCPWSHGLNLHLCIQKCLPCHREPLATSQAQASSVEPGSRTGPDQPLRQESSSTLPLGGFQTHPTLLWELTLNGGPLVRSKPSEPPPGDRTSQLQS

SMILES	Ki
CCOc1ncccc1-c1ccc2c(c1)N(C(=O)NC[C@@H](C)N)CC21CCN(c2ccc(C(F)(F)F)cc2C#N)CC1 [1-30, N-[(2R)-2-aminopropyl]-1′-[2-cyano-4-(trifluoromethyl)phenyl]-6-(2-ethoxypyridin-3-yl)-1,2-dihydrospiro[indole-3,4′-piperidine]-1-carboxamide]	10 to 100 nM
CCOc1ncccc1-c1ccc2c(c1)N(C(=O)NC[C@H](C)N)CC21CCN(c2ccc(C(F)(F)F)cc2C#N)CC1 [1-31, N-[(2S)-2-aminopropyl]-1′-[2-cyano-4-(trifluoromethyl)phenyl]-6-(2-ethoxypyridin-3-yl)-1,2-dihydrospiro[indole-3,4′-piperidine]-1-carboxamide]	10 to 100 nM
CCOc1ncccc1-c1ccc2c(c1)N(C(=O)N[C@@H]1CCNC1)CC21CCN(c2ccc(C(F)(F)F)cc2C#N)CC1 [1-32, 1′-[2-cyano-4-(trifluoromethyl)phenyl]-6-(2-ethoxypyridin-3-yl)-N-[(3R)-pyrrolidin-3-yl]-1,2-dihydrospiro[indole-3,4′-piperidine]-1-carboxamide]	10 to 100 nM
CCOc1ncccc1-c1ccc2c(c1)N(C(=O)N[C@H]1CCNC1)CC21CCN(c2ccc(C(F)(F)F)cc2C#N)CC1 [1-33, 1′-[2-cyano-4-(trifluoromethyl)phenyl]-6-(2-ethoxypyridin-3-yl)-N-[(3S)-pyrrolidin-3-yl]-1,2-dihydrospiro[indole-3,4′-piperidine]-1-carboxamide]	10 to 100 nM
CCOc1ncccc1-c1ccc2c(c1)N(C(=O)CCN)CC21CCN(c2ccc(Cl)cc2C#N)CC1 [1-34, 2-[1-(3-aminopropanoyl)-6-(2-ethoxypyridin-3-yl)-1,2-dihydrospiro[indole-3,4′-piperidin]-1′-yl]-5-chlorobenzonitrile]	10 to 100 nM
N#Cc1cc(C(F)(F)F)ccc1N1CCC2(CC1)CN(C(=O)CCN)c1cc(-c3ccccc3CO)ccc12 [1-35, 2-[1-(3-aminopropanoyl)-6-[2-(hydroxymethyl)phenyl]-1,2-dihydrospiro[indole-3,4′-piperidin]-1′-yl]-5-(trifluoromethyl)benzonitrile]	10 to 100 nM
CCOc1ncccc1-c1ccc2c(c1)N(S(=O)(=O)CCN)CC21CCN(c2ccc(C(F)(F)F)cc2C#N)CC1 [1-37, 2-[1-(2-aminoethanesulfonyl)-6-(2-ethoxypyridin-3-yl)-1,2-dihydrospiro[indole-3,4′-piperidin]-1′-yl]-5-(trifluoromethyl)benzonitrile]	10 to 100 nM
CCOc1ncccc1-c1ccc2c(c1)N(C[C@@H]1CCN1)CC21CCN(c2ccc(C(F)(F)F)cc2C#N)CC1 [1-39, 2-(1-{[(2S)-azetidin-2-yl]methyl}-6-(2-ethoxypyridin-3-yl)-1,2-dihydrospiro[indole-3,4′-piperidin]-1′-yl)-5-(trifluoromethyl)benzonitrile]	10 to 100 nM
CCOc1ncccc1-c1ccc2c(c1)N([C@H](C)CN)CC21CCN(c2ccc(C(F)(F)F)cc2C#N)CC1 [1-40, 2-{1-[(2R)-1-aminopropan-2-yl]-6-(2-ethoxypyridin-3-yl)-1,2-dihydrospiro[indole-3,4′-piperidin]-1′-yl}-5-(trifluoromethyl)benzonitrile]	< 10 nM
CCOc1ncccc1-c1ccc2c(c1)N(C(=O)CCN)CC21CCN(c2ccc(OC)nc2C#N)CC1 [1-43, 3-[1-(3-aminopropanoyl)-6-(2-ethoxypyridin-3-yl)-1,2-dihydrospiro[indole-3,4′-piperidin]-1′-yl]-6-methoxypyridine-2-carbonitrile]	10 to 100 nM
CCOc1ccc(N2CCC3(CC2)CN(C(=O)CCN)c2cc(-c4cccnc4OCC)ccc23)c(C#N)n1 [1-44, 3-[1-(3-aminopropanoyl)-6-(2-ethoxypyridin-3-yl)-1,2-dihydrospiro[indole-3,4′-piperidin]-1′-yl]-6-ethoxypyridine-2-carbonitrile]	10 to 100 nM
CCOc1ncccc1-c1ccc2c(c1)N(C[C@@H](C)N)CC21CCN(c2ccc(Cl)cc2C(F)F)CC1 [1-45, (2R)-1-{1′-[4-chloro-2-(difluoromethyl)phenyl]-6-(2-ethoxypyridin-3-yl)-1,2-dihydrospiro[indole-3,4′-piperidin]-1-yl}propan-2-amine]	10 to 100 nM
CCOc1ncccc1-c1ccc2c(n1)N(C[C@@H](C)N)CC21CCN(c2ccc(C(F)(F)F)cc2C#N)CC1 [1-46, 2-{1′-[(2R)-2-aminopropyl]-6′-(2-ethoxypyridin-3-yl)-1′,2′-dihydrospiro[piperidine-4,3′-pyrrolo[2,3-b]pyridin]-1-yl}-5-(trifluoromethyl)benzonitrile]	< 10 nM
CCOc1ncccc1-c1ccc2c(n1)N(C(=O)[C@@H](C)N)CC21CCN(c2ccc(C(F)(F)F)cc2C#N)CC1 [1-47, 2-{1′-[(2R)-2-aminopropanoyl]-6′-(2-ethoxypyridin-3-yl)-1′,2′-dihydrospiro[piperidine-4,3′-pyrrolo[2,3-b]pyridin]-1-yl}-5-(trifluoromethyl)benzonitrile]	10 to 100 nM
CCOc1ncccc1-c1ccc2c(n1)N(C(=O)[C@H](C)N)CC21CCN(c2ccc(C(F)(F)F)cc2C#N)CC1 [1-48, 2-{1′-[(2S)-2-aminopropanoyl]-6′-(2-ethoxypyridin-3-yl)-1′,2′-dihydrospiro[piperidine-4,3′-pyrrolo[2,3-b]pyridin]-1-yl}-5-(trifluoromethyl)benzonitrile]	< 10 nM
CCOc1ncccc1-c1ccc2c(n1)N(C(=O)CCNC)CC21CCN(c2ccc(C(F)(F)F)cc2C#N)CC1 [1-50, 2-[6′-(2-ethoxypyridin-3-yl)-1′-[3-(methylamino)propanoyl]-1′,2′-dihydrospiro[piperidine-4,3′-pyrrolo[2,3-b]pyridin]-1-yl]-5-(trifluoromethyl)benzonitrile]	< 10 nM

Further lines, results first:

Ki	SMILES
< 10 nM	CCOc1ncccc1-c1ccc2c(n1)N(C(=O)CCN)CC21CCN(c2ccc(C(F)(F)F)cc2C#N)CC1 [1-28, 2-[1′-(3-aminopropanoyl)-6′-(2-ethoxypyridin-3-yl)-1′,2′-dihydrospiro[piperidine-4,3′-pyrrolo[2,3-b]pyridin]-1-yl]-5-(trifluoromethyl)benzonitrile]
< 10 nM	CCOc1ncccc1-c1ccc2c(n1)N(CCN)CC21CCN(c2ccc(C(F)(F)F)cc2C#N)CC1 [1-29, 2-[1′-(2-aminoethyl)-6′-(2-ethoxypyridin-3-yl)-1′,2′-dihydrospiro[piperidine-4,3′-pyrrolo[2,3-b]pyridin]-1-yl]-5-(trifluoromethyl)benzonitrile]
1000 to 10000 nM	CCOc1ncccc1-c1ccc2c(c1)N(C(=O)CCN)CC21CCN(c2cc(OC)cc(C(F)(F)F)n2)CC1 [1-36, 3-amino-1-[6-(2-ethoxypyridin-3-yl)-1′-[4-methoxy-6-(trifluoromethyl)pyridin-2-yl]-1,2-dihydrospiro[indole-3,4′-piperidin]-1-yl]propan-1-one]
10 to 100 nM	CCOc1ncccc1-c1ccc2c(c1)N(C[C@H]1CCN1)CC21CCN(c2ccc(C(F)(F)F)cc2C#N)CC1 [1-38, 2-(1-{[(2R)-azetidin-2-yl]methyl}-6-(2-ethoxypyridin-3-yl)-1,2-dihydrospiro[indole-3,4′-piperidin]-1′-yl)-5-(trifluoromethyl)benzonitrile]
10 to 100 nM	CCOc1ncccc1-c1ccc2c(c1)N([C@@H](C)CN)CC21CCN(c2ccc(C(F)(F)F)cc2C#N)CC1 [1-41, 2-{1-[(2S)-1-aminopropan-2-yl]-6-(2-ethoxypyridin-3-yl)-1,2-dihydrospiro[indole-3,4′-piperidin]-1′-yl}-5-(trifluoromethyl)benzonitrile]
10 to 100 nM	C[C@@H](N)CN1CC2(CCN(c3ccc(C(F)(F)F)cc3C#N)CC2)c2ccc(-c3ccccc3CO)cc21 [1-42, 2-{1-[(2R)-2-aminopropyl]-6-[2-(hydroxymethyl)phenyl]-1,2-dihydrospiro[indole-3,4′-piperidin]-1′-yl}-5-(trifluoromethyl)benzonitrile]
< 10 nM	CCOc1ncccc1-c1ccc2c(n1)N(C(=O)[C@@H]1CCNC1)CC21CCN(c2ccc(C(F)(F)F)cc2C#N)CC1 [1-49, 2-[6′-(2-ethoxypyridin-3-yl)-1′-[(3R)-pyrrolidine-3-carbonyl]-1′,2′-dihydrospiro[piperidine-4,3′-pyrrolo[2,3-b]pyridin]-1-yl]-5-(trifluoromethyl)benzonitrile]
< 10 nM	CCOc1ncccc1-c1ccc2c(n1)N(C[C@H](N)CO)CC21CCN(c2ccc(C(F)(F)F)cc2C#N)CC1 [1-51, 2-{1′-[(2S)-2-amino-3-hydroxypropyl]-6′-(2-ethoxypyridin-3-yl)-1′,2′-dihydrospiro[piperidine-4,3′-pyrrolo[2,3-b]pyridin]-1-yl}-5-(trifluoromethyl)benzonitrile]
< 10 nM	CCOc1ncccc1-c1ccc2c(n1)N([C@@H]1CCNC1)CC21CCN(c2ccc(C(F)(F)F)cc2C#N)CC1 [1-52, 2-[6′-(2-ethoxypyridin-3-yl)-1′-[(3R)-pyrrolidin-3-yl]-1′,2′-dihydrospiro[piperidine-4,3′-pyrrolo[2,3-b]pyridin]-1-yl]-5-(trifluoromethyl)benzonitrile]
